Experiments:
HCT116 cells = test: Immunoblotting of cullins, CRL components and substrates in HCT116 cells; format: cell-based, human; details: qualitative western blot analysis
Method: Figure 2 CSN5 inhibition results in the inactivation of a subset of CRLs and the stabilization of their substrates. Effect on CRL components and substrates after treatment of HCT116 cells with either 1 μM MLN4924 or 1 μM CSN5i-3. (a) Immunoblottings for Cul1 and its CRL components Rbx and Skp1; (b) for cullins Cul2, Cul3 and Cul4A; (c) for F-box protein Skp2 and the SCF^Skp2 substrates p21 and p27; (d) for F-box proteins Fbxo22 and Fbxo30; (e) for F-box protein βTrCP and the SCF^βTrCP substrates Wee1 and pIκBα; (f) for the adaptor KEAP1 and the Cul3^KEAP1 substrate Nrf2; (g) for F-box proteins Fbxw7 and Fbxo3.
Cells were maintained in a humidified incubator at 37 °C and 5% CO2. HCT116 cells (ATCC #CCL-247) were grown in McCoy's 5A medium (GIBCO #16600–082) supplemented with 10% fetal bovine serum (FBS), TE-1 (RIKEN BioResource Center, #RCB1894), NCI-H2030 (ATCC #CRL-591), SU-DHL-1 (DMSZ #ACC 356), NOMO-1 (HSRRB #IFO50474) and NCIH196 cells (ATCC, #CRL-5823) in RPMI-1640 medium (GIBCO#61870–010) supplemented with 10% FBS, 10 mM HEPES, 1 mM sodium pyruvate and THP-1 cells (ATCC #TIB-202) with additional 0.05 mM 2-mercaptoethanol. DMS273 cells (ECACC #950628) were cultured in Waymouth's MB 752/1 medium (GIBCO#11220–035) supplemented with 10% FBS. All cells were negatively tested for mycoplasma contamination either by the vendor or in house. For treatment with compounds, sub-confluent cells were either treated with inhibitors at the indicated concentrations or mock treated with an equivalent amount of DMSO (final content 0.1%). If not stated otherwise, cells were harvested after incubation for 16 h and subjected to SDS–PAGE and western blotting. The RNA interference experiment was performed with CSN5 stealth siRNA (#HSS116986) and stealth negative control siRNA (#12935–400) (Invitrogen), which were transfected at 10 nM into HCT116 cells using HiperFect (Qiagen) according to the manufacturer's protocols. Seventy-two hours after transfection, cells were harvested and subjected to SDS–PAGE and western blotting (see Supplementary Fig. 7 for all western blottings performed).
For further analysis, cell lysates were prepared by direct lysis with 2 × Sample buffer (65.8 mM Tris-HCl, pH 6.8, 2.1% SDS, 26.3% glycerol, 0.01% bromophenol blue and 20 mM DTT). Protein lysates from tumour powder were prepared in RIPA buffer (50 mM Tris-HCl pH 8.0, 150 mM NaCl, 1% Triton X-100, 2 mM EDTA, 0.5% sodium deoxycholate and 0.1% SDS) supplemented with 10 mM N-ethylmaleimide, protease inhibitor and phosphatase inhibitor cocktails (Roche Diagnostics). Cells from longer compound incubations were also lysed in RIPA buffer, which allows the protein concentration to be determined by BCA Protein Assay Kit (Pierce). Proteins were separated by SDS–PAGE using 4–20% Tris-Glycine Gels (Invitrogen) and subsequently transferred to polyvinylidene difluoride membranes using a Trans-Blot Turbo System (BioRad). […] Horseradish peroxidase-conjugated secondary antibodies (1:3,000) were purchased from Promega AG and bound antibody was detected by enhanced chemiluminescence (Pierce).

[1] = system: panel of cancer cell lines; test: Cell viability (CellTiter-Glo) dose-response across cancer cell line panel; format: cell-based, human; details: SNB-19;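 further: after 72 h compound incubation with CellTiter-Glo ATP readout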
Excerpt: Next, we explored the effect of CSN5 inhibition on the viability of cancer cells. To obtain a comprehensive picture, we generated dose–response curves with a CSN5 inhibitor across more than 500 cancer cell lines in a previously described standardized setting[47] (Supplementary Data 1).
A standardized CellTiter-Glo Assay (Promega #G7570) based on the quantification of ATP was applied according to the manufacturer's protocol to measure the amount of viable cells in culture. In brief, cells were seeded into 384-well plates at optimal density for each cell line. After 4 h, compounds were added at different concentrations in growth medium and incubated for another 72 h in a humidifying chamber at 37 °C and 5% CO2. […] EC50 values were calculated from the plot of percentage of inhibition versus inhibitor concentration using the nonlinear regression analysis software Origin 7.5SR6 (OriginLab Corp.).

Row | EC50 [1] | Compound | cullin-1 (Cul1) deneddylation in HCT116 cells (HCT116 cells)
1 | – | N#Cc1ccc([C@H]2[C@@H](O)CCCc3cncn32)c(-c2ccccc2)c1 (relative stereo) [CSN5i-1a, Cis-6-(6-Hydroxy-6,7,8,9-tetrahydro-5H-imidazo[1,5-a]azepin-5-yl)-[1,1′-biphenyl]-3-carbonitrile] | weakly inhibited
2 | 9.53 nM | CC(C)C[C@H](NC(=O)[C@H](Cc1ccccc1)NC(=O)c1cnccn1)B(O)O [Botezomib] | –
